Results reported in ChEMBL document CHEMBL1124170, “N2-phenyldeoxyguanosine: a novel selective inhibitor of herpes simplex thymidine kinase” (J Med Chem, 1988).
pEC50: −log10 of the molar value.

Experiments:
[1] = biological target: T1, Thymidine kinase (Human herpesvirus 1 (strain SC16) (HHV-1) (Human herpes simplex virus1), UniProt P06479); assay: Inhibitory activity against Herpes simplex virus type-I specific thymidine kinase; set-up: species or system Human alphaherpesvirus 1 strain SC16
T1 sequence (P06479 whole entry): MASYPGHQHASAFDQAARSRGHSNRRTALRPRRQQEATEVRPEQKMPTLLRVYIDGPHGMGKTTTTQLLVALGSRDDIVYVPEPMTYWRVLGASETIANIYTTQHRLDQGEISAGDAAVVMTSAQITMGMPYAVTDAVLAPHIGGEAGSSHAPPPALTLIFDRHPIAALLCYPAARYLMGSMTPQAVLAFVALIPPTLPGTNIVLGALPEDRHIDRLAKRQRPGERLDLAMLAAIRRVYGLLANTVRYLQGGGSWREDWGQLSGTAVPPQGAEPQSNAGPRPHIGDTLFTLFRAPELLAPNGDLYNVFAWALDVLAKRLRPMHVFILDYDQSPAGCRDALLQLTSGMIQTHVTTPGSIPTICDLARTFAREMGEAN

[2] = test system: Thymidine kinase (Human alphaherpesvirus 1); assay: Inhibitory activity against Herpes simplex virus type-I specific thymidine kinase; No inhibition detected at 1 mM concentration

Compound	pEC50 [1]	EC50 [2]
CCCCc1ccc(Nc2nc3c(ncn3COCCO)c(=O)[nH]2)cc1	3.85	–
CCCCc1ccc(Nc2nc3nc[nH]c3c(=O)[nH]2)cc1	4.30	–
CCCCc1ccc(Nc2nc3c(ncn3[C@H]3O[C@@H](CO)[C@H](O)[C@@H]3O)c(=O)[nH]2)cc1	4.12	–
CCCCc1ccc(Nc2nc3c(ncn3[C@H]3C[C@H](O)[C@@H](CO)O3)c(=O)[nH]2)cc1	4.60	–
CCCCc1ccc(Nc2nc(N)c3ncn([C@H]4C[C@H](O)[C@@H](CO)O4)c3n2)cc1	–	Not Active
CCCCc1ccc(NC2=NC(=O)C3N=CN([C@H]4C[C@H](O)[C@@H](COP(=O)(O)O)O4)C3=N2)cc1 (stereo not given in full)	3.40	–
O=C1N=C(Nc2ccccc2)N=C2C1N=CN2[C@H]1C[C@H](O)[C@@H](COP(=O)(O)O)O1 (stereo not given in full)	5.52	–
CCc1cccc(Nc2nc3nc[nH]c3c(=O)[nH]2)c1	5.52	–
Cc1ccc(Nc2nc3nc[nH]c3c(=O)[nH]2)cc1	4.30	–
Cc1ccc(Nc2nc3c(ncn3C3O[C@@H](CO)[C@H](O)[C@@H]3O)c(=O)[nH]2)cc1 (stereo not given in full)	4.52	–
